From patent US20230250054A1, “SELECTIVE HISTONE DEACETYLASE 6 INHIBITORS” (The Board of Trustees of the University of Illinois, priority 2020, published 2023)

What was measured:
Assay type in all cases: biochemical
Details in all cases: for IC50: 10 μM Boc-Lys(TFA)-AMC substrate, mean of two experiments ± SEM
HDAC8 = target: T1, HDAC8 (Homo sapiens, UniProt Q9BY41); assay: Fluorescence-based HDAC inhibition assay, HDAC8
T1 construct: made in house; host or cells: HEK293/T17 cells, transient transfection
T1 sequence (Q9BY41 1-377): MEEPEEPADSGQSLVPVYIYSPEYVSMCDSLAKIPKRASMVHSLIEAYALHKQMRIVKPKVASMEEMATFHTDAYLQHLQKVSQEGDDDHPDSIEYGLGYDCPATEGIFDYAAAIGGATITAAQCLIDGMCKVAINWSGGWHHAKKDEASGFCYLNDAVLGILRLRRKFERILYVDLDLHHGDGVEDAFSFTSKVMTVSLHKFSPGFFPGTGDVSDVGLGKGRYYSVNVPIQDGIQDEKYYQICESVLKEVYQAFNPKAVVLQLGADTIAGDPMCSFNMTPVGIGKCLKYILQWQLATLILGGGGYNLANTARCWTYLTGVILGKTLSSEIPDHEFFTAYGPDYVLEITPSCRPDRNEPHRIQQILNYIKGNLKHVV
Experimental: (§1) Briefly, transiently transfected cells were harvested three days post-transfection and the cell pellets resuspended in a lysis buffer (50 mM Tris, 150 mM NaCl, 10 mM KCl, 2 mM MgCl2, 10% glycerol, 0.2% NP-40, 2 Units/mL benzonase, pH 8) supplemented with a cocktail of protease inhibitors (Roche, Basel, Switzerland). Cells were lysed by sonication (30 W; 3×20 s) on ice, and the cell lysate cleared by centrifugation at 40 000×g for 30 min at 4° C. […] Purified proteins were concentrated to 1 mg/mL, aliquoted, flash-frozen in liquid nitrogen, and stored at −80° C. until further use.
(§2) Briefly, individual HDACs were preincubated with dilution series of tested inhibitors (0-100 μM) in a 384-well plate in the total volume of 40 μL for 10 min at 37° C. in a reaction buffer comprising 50 mM HEPES, 140 mM NaCl, 10 mM KCl, 1 mM TCEP, 0.1% BSA, pH 7.4. Deacetylation reaction was started by the addition of 10 μL of a 10 μM substrate into the HDAC/inhibitor mixture. Following the 30 min incubation at 37° C., the reaction was terminated by the addition of 25 μL of the trypsin solution (4 mg/mL). Fluorescence development by trypsin was carried out at 37° C. for 15 and 60 min for Ac-GAK(Ac)-AMC and Boc-Lys(TFA)-AMC substrate, respectively. […] Non-linear regression analysis was employed to calculate IC50 values using the GraphPad Prism software. […] Reactions without the enzyme or the inhibitor were used to define 0% and 100% of the HDAC activity, respectively.

HDAC4 = HDAC4 (Homo sapiens, UniProt P56524); assay: Fluorescence-based HDAC inhibition assay, HDAC4
Sequence of HDAC4 (P56524 whole entry): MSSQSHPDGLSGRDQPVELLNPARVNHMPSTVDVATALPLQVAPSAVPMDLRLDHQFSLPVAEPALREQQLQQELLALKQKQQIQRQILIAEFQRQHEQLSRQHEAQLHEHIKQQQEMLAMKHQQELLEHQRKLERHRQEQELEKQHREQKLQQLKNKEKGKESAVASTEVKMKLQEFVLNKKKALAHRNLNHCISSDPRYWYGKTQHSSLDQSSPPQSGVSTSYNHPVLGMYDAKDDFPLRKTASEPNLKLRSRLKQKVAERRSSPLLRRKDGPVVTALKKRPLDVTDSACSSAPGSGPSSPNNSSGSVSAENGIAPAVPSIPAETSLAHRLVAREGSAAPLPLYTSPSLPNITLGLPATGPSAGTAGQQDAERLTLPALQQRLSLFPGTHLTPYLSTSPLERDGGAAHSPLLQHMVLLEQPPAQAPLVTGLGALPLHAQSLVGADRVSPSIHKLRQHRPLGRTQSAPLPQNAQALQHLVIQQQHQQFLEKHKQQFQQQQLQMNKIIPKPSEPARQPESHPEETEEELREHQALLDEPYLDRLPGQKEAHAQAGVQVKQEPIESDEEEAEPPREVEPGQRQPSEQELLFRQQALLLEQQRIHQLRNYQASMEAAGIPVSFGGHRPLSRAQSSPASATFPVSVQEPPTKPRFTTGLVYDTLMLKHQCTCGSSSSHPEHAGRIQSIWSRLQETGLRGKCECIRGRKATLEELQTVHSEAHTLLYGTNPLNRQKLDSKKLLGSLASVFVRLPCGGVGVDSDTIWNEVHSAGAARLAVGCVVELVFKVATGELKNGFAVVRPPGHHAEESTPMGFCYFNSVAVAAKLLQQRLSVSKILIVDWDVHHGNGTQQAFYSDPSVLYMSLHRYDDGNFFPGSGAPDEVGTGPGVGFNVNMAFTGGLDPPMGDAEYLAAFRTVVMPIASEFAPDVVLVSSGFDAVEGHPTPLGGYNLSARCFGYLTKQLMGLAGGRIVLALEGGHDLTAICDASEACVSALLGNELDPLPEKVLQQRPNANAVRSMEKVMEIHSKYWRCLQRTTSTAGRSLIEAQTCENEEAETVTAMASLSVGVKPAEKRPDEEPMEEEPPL
Experimental: as §1, with “Large scale expression of human HDACs was carried out in HEK293/T17 cells essentially as described previously (see, e.g., Falkenberg et al., Nat. Rev. Drug Discov. 13, 673-691 (2014); or Matthias et al., Cell Cycle 7: 7-10 (2008)). Briefly,” for “Briefly,”
Briefly, individual HDACs were preincubated with dilution series of tested inhibitors (0-100 μM) in a 384-well plate in the total volume of 40 μL for 10 min at 37° C. in a reaction buffer comprising 50 mM HEPES, 140 mM NaCl, 10 mM KCl, 1 mM TCEP, 0.1% BSA, pH 7.4. Deacetylation reaction was started by the addition of 10 μL of a 10 μM substrate into the HDAC/inhibitor mixture. Following the 30 min incubation at 37° C., the reaction was terminated by the addition of 25 μL of the trypsin solution (4 mg/mL). Fluorescence development by trypsin was carried out at 37° C. for 15 and 60 min for Ac-GAK(Ac)-AMC and Boc-Lys(TFA)-AMC substrate, respectively. Released aminomethylcoumarin was quantified using a CLARIOstar fluorimeter with the excitation and emission wavelengths set to 365 nm and 440 nm, respectively. Non-linear regression analysis was employed to calculate IC50 values using the GraphPad Prism software. […] Reactions without the enzyme or the inhibitor were used to define 0% and 100% of the HDAC activity, respectively.

HDAC7 = target: T2, HDAC7 (Homo sapiens, UniProt Q8WUI4); assay: Fluorescence-based HDAC inhibition assay, HDAC7
T2 construct: made in house; host or cells: HEK293/T17 cells, transient transfection
T2 sequence (Q8WUI4 1-952): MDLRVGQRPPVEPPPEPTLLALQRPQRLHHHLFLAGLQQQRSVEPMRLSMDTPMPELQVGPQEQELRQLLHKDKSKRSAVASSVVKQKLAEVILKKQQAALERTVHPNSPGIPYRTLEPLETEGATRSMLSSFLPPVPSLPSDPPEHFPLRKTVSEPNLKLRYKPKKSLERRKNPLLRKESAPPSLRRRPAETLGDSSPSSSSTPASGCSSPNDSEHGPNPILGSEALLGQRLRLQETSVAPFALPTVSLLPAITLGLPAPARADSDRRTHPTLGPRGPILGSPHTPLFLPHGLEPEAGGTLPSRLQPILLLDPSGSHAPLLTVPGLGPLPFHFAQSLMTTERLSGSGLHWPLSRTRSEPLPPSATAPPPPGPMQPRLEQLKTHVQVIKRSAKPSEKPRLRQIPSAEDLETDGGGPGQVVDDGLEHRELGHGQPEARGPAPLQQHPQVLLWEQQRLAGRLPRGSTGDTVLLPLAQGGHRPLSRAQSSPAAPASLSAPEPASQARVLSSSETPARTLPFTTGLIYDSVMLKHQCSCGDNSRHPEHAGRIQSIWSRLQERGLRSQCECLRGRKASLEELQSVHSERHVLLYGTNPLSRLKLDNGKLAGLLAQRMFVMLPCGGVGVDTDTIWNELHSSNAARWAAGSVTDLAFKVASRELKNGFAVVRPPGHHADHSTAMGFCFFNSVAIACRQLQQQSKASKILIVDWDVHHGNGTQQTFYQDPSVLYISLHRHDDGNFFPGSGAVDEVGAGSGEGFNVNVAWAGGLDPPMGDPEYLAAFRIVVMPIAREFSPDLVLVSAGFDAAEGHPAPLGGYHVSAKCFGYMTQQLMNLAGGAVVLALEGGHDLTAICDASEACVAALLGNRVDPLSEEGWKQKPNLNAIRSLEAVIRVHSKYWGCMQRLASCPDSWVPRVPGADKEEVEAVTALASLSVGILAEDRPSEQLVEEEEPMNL
Experimental: as §1, §2

| Structure (SMILES) | SI (HDAC6 selectivity index over HDAC8) (HDAC8) | IC50 (HDAC8) [µM] | SI (HDAC6 selectivity index over HDAC4) (HDAC4) | IC50 (HDAC4) [µM] | SI (HDAC6 selectivity index over HDAC7) (HDAC7) | IC50 (HDAC7) [µM] |
| --- | --- | --- | --- | --- | --- | --- |
| NCc1ccc(NC(=O)N(CCCCO)Cc2ccc(C(=O)NO)cc2)cc1 [Compound 6a, 4-((3-(4-(Aminomethyl)phenyl)-1-(4-hydroxybutyl)ureido)methyl)-N-hydroxybenz-amide] | 1,250 | 0.498 ± 0.058 | 20,600 | 8.25 | 3,680 | 1.47 |
| CCCCN(Cc1ccc(C(=O)NO)cc1)C(=O)Nc1ccc(CN)cc1 [Compound 6b, 4-((3-(4-(Aminomethyl)phenyl)-1-butylureido)methyl)-N-hydroxybenzamide] | 682 | 0.614 ± 0.058 | 25,700 | 23.1 | 10,000 | 9 |
| O=C(NO)c1ccc(CN(CCCCO)C(=O)Nc2ccccc2)cc1 [Compound 6c, reference compound] | 956 | 0.478 ± 0.097 |  | 14 |  | 1.93 |
